Values of other authors in patent US20250161397A1, “PLANT BASED FORMULATION FOR FAST PAIN RELIEF AND PREPARATION METHOD” (ARJUNA NATURAL PRIVATE LIMITED, priority 2022, published 2025).

Experiments:
[1] = biological target: T1, COX-2 (Homo sapiens, UniProt P35354); details: Siemoneit 2008
T1 sequence (P35354 18-604): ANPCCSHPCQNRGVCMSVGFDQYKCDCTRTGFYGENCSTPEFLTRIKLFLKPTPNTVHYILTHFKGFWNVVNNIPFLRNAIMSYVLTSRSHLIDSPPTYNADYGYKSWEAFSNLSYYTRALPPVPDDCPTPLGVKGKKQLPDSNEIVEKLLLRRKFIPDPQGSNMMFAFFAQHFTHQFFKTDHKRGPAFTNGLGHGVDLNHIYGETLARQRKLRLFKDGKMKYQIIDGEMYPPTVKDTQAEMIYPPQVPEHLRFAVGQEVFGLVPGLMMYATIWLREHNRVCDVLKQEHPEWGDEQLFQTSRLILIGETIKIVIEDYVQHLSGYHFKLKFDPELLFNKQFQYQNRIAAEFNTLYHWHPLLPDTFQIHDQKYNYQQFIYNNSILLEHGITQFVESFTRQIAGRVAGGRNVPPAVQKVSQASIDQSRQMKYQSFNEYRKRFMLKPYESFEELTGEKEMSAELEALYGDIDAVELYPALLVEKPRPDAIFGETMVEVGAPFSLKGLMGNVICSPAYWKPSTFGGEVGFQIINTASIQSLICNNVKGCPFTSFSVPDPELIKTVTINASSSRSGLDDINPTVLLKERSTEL

[2] = biological target: COX-1 (Homo sapiens, UniProt P23219); details: Siemoneit 2008
COX-1 (Homo sapiens, UniProt P23219), sequence (P23219 24-599): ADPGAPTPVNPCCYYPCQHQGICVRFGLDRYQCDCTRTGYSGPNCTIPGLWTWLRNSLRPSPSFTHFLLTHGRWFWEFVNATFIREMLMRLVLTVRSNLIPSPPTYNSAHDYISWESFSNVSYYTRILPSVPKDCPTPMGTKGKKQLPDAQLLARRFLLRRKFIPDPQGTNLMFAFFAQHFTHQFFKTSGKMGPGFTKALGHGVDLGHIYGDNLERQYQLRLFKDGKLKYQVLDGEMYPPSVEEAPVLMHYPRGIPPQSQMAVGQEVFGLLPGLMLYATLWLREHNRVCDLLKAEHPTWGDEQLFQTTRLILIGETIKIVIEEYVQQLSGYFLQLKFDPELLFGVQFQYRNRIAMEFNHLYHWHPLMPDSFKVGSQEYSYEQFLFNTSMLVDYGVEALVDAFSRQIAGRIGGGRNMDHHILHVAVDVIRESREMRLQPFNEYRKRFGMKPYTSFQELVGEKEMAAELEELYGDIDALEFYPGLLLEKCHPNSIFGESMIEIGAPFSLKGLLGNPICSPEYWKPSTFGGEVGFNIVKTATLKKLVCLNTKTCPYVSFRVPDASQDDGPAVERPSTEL

[3] = biological target: T2, 5-LOX (Homo sapiens, UniProt P09917); details: literature
T2 sequence (P09917 1-674): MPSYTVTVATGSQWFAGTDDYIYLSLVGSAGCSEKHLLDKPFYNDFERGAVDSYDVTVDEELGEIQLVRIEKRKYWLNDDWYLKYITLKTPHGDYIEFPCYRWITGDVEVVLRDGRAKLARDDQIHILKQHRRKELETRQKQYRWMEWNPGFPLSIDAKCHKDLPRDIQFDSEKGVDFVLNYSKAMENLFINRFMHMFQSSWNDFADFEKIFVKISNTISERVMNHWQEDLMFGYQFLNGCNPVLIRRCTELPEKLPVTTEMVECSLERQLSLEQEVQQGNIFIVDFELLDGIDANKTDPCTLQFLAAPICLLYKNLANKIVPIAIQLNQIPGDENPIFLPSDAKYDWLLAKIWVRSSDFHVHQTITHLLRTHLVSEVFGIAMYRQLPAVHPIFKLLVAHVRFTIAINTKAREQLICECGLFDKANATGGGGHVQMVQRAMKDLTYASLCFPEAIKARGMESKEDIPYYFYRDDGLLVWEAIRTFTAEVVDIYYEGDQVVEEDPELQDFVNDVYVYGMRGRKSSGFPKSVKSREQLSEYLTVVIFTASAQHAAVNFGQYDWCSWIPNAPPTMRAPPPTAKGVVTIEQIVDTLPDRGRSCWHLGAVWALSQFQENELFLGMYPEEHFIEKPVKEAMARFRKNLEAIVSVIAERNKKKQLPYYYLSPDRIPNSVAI

[4] = system: COX-1; details: Goel 2001
[5] = system: COX-2; details: HT-29 human colon cancer cells; Goel 2001
[6] = biological target: T3, 12/15 LOX (Rattus norvegicus, UniProt Q02759); details: in vitro, rat lung cytosolic fraction; Bezáková 2014
T3 construct: from tissue; host or cells: rat lung cytosolic fraction
T3 sequence (Q02759 1-663): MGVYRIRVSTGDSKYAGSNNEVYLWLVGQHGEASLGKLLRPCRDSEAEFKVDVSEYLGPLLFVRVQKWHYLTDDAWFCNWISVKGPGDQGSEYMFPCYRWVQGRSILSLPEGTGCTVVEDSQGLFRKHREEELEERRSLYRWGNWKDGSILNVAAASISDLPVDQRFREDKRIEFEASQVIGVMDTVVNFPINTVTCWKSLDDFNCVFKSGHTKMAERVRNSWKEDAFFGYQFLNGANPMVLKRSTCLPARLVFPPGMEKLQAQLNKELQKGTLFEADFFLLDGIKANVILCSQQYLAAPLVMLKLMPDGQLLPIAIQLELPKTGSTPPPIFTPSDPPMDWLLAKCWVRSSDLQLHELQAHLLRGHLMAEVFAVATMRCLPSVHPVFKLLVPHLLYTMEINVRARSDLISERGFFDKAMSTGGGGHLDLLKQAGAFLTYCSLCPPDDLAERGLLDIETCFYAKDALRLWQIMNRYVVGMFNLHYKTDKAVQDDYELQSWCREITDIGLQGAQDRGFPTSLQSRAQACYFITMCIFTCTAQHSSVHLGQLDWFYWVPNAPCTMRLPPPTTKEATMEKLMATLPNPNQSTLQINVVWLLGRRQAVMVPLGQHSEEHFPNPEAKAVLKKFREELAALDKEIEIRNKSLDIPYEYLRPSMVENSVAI

inhibition of COX-1 [2]	SMILES	inhibition of COX-2 [1]	inhibition of 5-LOX [3]	effect on mRNA and protein expression of COX-1 [4]	effect on mRNA and protein expression of COX-2 [5]	inhibition of 12/15 LOX [6]
reversible inhibition of COX-1	CC(=O)O[C@@H]1CC[C@@]2(C)[C@@H](CC[C@]3(C)[C@@H]2C(=O)C=C2[C@@H]4[C@@H](C)[C@H](C)CC[C@]4(C)CC[C@]23C)[C@@]1(C)C(=O)O [AKBA, acetyl-11-keto-β-boswellic acid]	less efficiently inhibited by AKBA as compared to COX-1	good inhibition of 5-LOX	–	–	–
–	COc1cc(/C=C/C(=O)CC(=O)/C=C/c2ccc(O)c(OC)c2)ccc1O [Curcumin, curcumin]	–	bind to the active site of 5-LOX and inhibit its activity	not COX-1	inhibit the mRNA and protein expression of COX-2	competitive inhibitor of 12/15 LOX
